Experimental data as given in patent US12570612B2, “Substituted nitrogen heterocyclic compound and anesthetic effect thereof” (priority 2019, dated 2026).
Entries after “also recorded” stand apart in the source; their conditions may differ. Read-outs that look alike come from different tables or passages of the source.

Tests used:
H295R cell line = assay: Adrenocortical function in vitro test: secretion of cortisol and corticosterone, Group A compounds; type: cell-based; details: H295 cells; for EC50: 0.1-10000 nM, HPLC-MS/MS
Sprague-Dawley rats [1] = assay: animal or person; details: for Approximate therapeutic index / Minimal lethal dose: rats
Experimental: Adult male Sprague-Dawley rats (250-300 g) were selected for the experiment. […] The anesthesia effects of the compounds were assessed in rats using a LORR assay and a period >30 s was considered as an indicator of general anesthesia.

Sprague-Dawley rats [2] = assay: Pharmacological characteristics at equivalent doses (2ED50), Group A compounds; type: in vivo; design: Sedation duration: unit not given here; details: 2ED50, tail vein; for Types and incidence of adverse reactions: (animals affected/animals)
[3] = Homo sapiens, read-out: EC50 (Corticosterone)
[4] = Homo sapiens, read-out: EC50 (Cortisol)

SMILES | Corticosterone as an indicator to determine the presence of inhibition (H295R cell line) | Cortisol as an indicator to determine the presence of inhibition (H295R cell line) | EC50 (H295R cell line; [3]) | EC50 (H295R cell line; [4]) | ED50 (Sprague-Dawley rats [1]; Rattus norvegicus) | Approximate therapeutic index (Sprague-Dawley rats [1]) | Minimal lethal dose (Sprague-Dawley rats [1]) | Onset time (Sprague-Dawley rats [2]) | Righting reflex duration (Sprague-Dawley rats [2]) | Types and incidence of adverse reactions (Sprague-Dawley rats [2]) | EC50 (H295R cell line; read-out: EC50 (Corticosterone)) | EC50 (H295R cell line; read-out: EC50 (Cortisol)) | ED50 (Sprague-Dawley rats [1]; LORR in rats, tail vein, brackets = 95% confidence limit) | Sedation duration (Sprague-Dawley rats [2])
CC#CC(C)OC(=O)c1ccnn1[C@H](C)c1ccccc1 (stereo partly shown) [Compound A11] | 0 | 0 | > 100 nM | > 100 nM | 1 to 2 mg/kg | >4 | >8 mg/kg | 0.41 ± 0.15 min | 2.65 ± 1.10 min | Red urine(6/6), General; also recorded: Tremor(4/6), Hindlimb; also recorded: rigidity (2/6),; also recorded: Convulsion(1/6),; also recorded: Euphoria(1/6) |  |  |  | 
CC#CC(C)(C)OC(=O)c1ccnn1[C@H](C)c1ccccc1 [Compound A12] | 0 | 0 | > 100 nM | > 100 nM | 1 to 2 mg/kg | >4 | >6 mg/kg | 0.69 ± 0.22 min | 3.16 ± 2.13 min | Red urine(8/8),; also recorded: Tremor(3/8),; also recorded: Euphoria(1/8), Hindlimb; also recorded: rigidity (1/8), Clonic; also recorded: convulsion(1/8), Tetany; also recorded: Apnea(1/8), Nod(1/8) |  |  |  | 
C=CC#CC(C)OC(=O)c1ccnn1[C@H](C)c1ccccc1 (stereo partly shown) [Compound A15] | 0 | 0 | > 100 nM | > 100 nM | 2 to 6 mg/kg | >4 | >9 mg/kg | 0.40 ± 0.10 min | 1.82 ± 0.76 min | Red urine(8/8),; also recorded: Euphoria(2/8), Hindlimb; also recorded: rigidity(2/8), Hindlimb; also recorded: Tremor(1/8) |  |  |  | 
C=CC#CC(C)(C)OC(=O)c1ccnn1[C@H](C)c1ccccc1 [Compound A16] | 0 | 0 | > 100 nM | > 100 nM | 2 to 6 mg/kg | >4 | >12 mg/kg | 0.55 ± 0.21 min | 2.55 ± 1.54 min |  |  |  |  | 
CC(=O)C1=C(OC(=O)c2ccnn2[C@H](C)c2ccccc2)CCC1 [Compound A18] | 0 | 0 | > 100 nM | > 100 nM | 2 to 6 mg/kg | >3 | >8 mg/kg | 0.73 ± 0.10 min | 1.19 ± 0.64 min | Red urine(8/8), Hindlimb; also recorded: rigidity(5/8) |  |  |  | 
CCC(CC)OC(=O)c1ccnn1[C@H](C)c1ccccc1 [Compound A21] | 0 | 0 |  |  |  | >16 | >6 mg/kg | 0.51 ± 0.10 min | 1.16 ± 0.39 min | Red and urine(8/8), Euphoria(3/8), and Four limbs Tremor(2/8), and Hindlimb rigidity (2/8) | > 100 nM | > 100 nM | D (D indicates that the measured ED50 is in the range of 2.00-6.00 mg/kg (excluding 2.00 mg/kg, including 6.00 mg/kg)) | 8.65 ± 2.38
CC#CCOC(=O)c1ccnn1[C@H](C)c1ccccc1 [Compound A23] | 0 | 0 | > 100 nM | > 100 nM | 2 to 6 mg/kg | >5 | >11 mg/kg | 0.48 ± 0.14 min | 2.28 ± 1.83 min | Red and urine(8/8), Euphoria(6/8), and Hindlimb rigidity and (2/8), Tremor(1/8), and Convulsions(1/8) |  |  |  | 
CO[C@H]1C[C@@H](OC(=O)c2ccnn2[C@H](C)c2ccccc2)C1 [Compound A25] | 0 | 0 | > 1000 nM | > 1000 nM | 0.04 to 0.5 mg/kg | >21 | >5 mg/kg | 0.50 ± 0.12 min | 2.6 ± 0.83 min | Red urine(8/8), Hindlimb; also recorded: rigidity (2/8), Tremor(1/8) |  |  |  | 
C=CC1(OC(=O)c2ccnn2[C@H](C)c2ccccc2)COC1 [Compound A34] | 0 | 0 | > 1000 nM | > 1000 nM | 0.5 to 1 mg/kg | >6 | >4 mg/kg | 0.60 ± 0.32 min | 1.6 ± 0.43 min | Red urine(8/8), Hindlimb; also recorded: rigidity(2/8), Tremor(1/8) |  |  |  | 
CCOC(=O)c1cc(F)nn1[C@H](C)c1ccccc1 [Compound A49] | 0 | 0 | > 100 nM | > 100 nM | 2 to 6 mg/kg | >2 | >9 mg/kg | 0.28 ± 0.04 min | 2.69 ± 1.18 min | Red urine(8/8), Hindlimb; also recorded: rigidity (2/8), broken-; also recorded: winded(1/8), Tremor(3/8) |  |  |  | 
C#CC1(OC(=O)c2cc(F)nn2[C@H](C)c2ccccc2)COC1 [Compound A53] | 0 | 0 | > 100 nM | > 100 nM | 2 to 6 mg/kg | >6 | >14 mg/kg | 0.53 ± 0.28 min | 3.01 ± 1.22 min | Red and urine(8/8), Tremor(2/8) |  |  |  | 
COC(=O)C1=C(OC(=O)c2cc(F)nn2[C@H](C)c2ccccc2)CCCC1 [Compound A54] | 0 | 0 | > 100 nM | > 100 nM | 1 to 2 mg/kg | >9 | >12 mg/kg | 0.69 ± 0.11 min | 2.13 ± 1.80 min | rigidity; also recorded: (3/8), GeneralTremor(1/8); also recorded: Red urine(8/8), Hindlimb |  |  |  | 
C[C@H](c1ccccc1)n1nc(F)cc1C(=O)OC(C)(C)C [Compound A57] | 0 | 0 | > 100 nM | > 100 nM | 2 to 6 mg/kg | >7 | >15 mg/kg | 0.42 ± 0.16 min | 1.48 ± 0.51 min | Red and urine(7/7), GeneralTremor and (2/7), Tetany and convulsion(2/7) |  |  |  | 
C=CC1(OC(=O)c2cc(F)nn2[C@H](C)c2ccccc2)COC1 [Compound A65] | 0 | 0 | > 100 nM | > 100 nM | 2 to 6 mg/kg | >7 | >16 mg/kg | 0.36 ± 0.15 min | 2.48 ± 0.67 min | Red and urine(8/8), Tremor(2/8) |  |  |  | 
CCOC(=O)c1c(F)cnn1[C@H](C)c1ccccc1 [Compound A70] | 0 | 0 | > 100 nM | > 100 nM | 1 to 2 mg/kg | >6 | >12 mg/kg | 0.31 ± 0.08 min | 2.51 ± 1.03 min |  |  |  |  | 
CC#CCOC(=O)c1c(F)cnn1[C@H](C)c1ccccc1 [Compound A72] | 0 | 0 | > 1000 nM | > 1000 nM | 0.04 to 0.5 mg/kg | >100 | >11 mg/kg | 0.41 ± 0.17 min | 0.71 ± 0.20 min | Red and urine(8/8), Tremor(1/8), and Hindlimb rigidity (1/8) |  |  |  | 
C=C=CC1(OC(=O)c2c(F)cnn2[C@H](C)c2ccccc2)COC1 [Compound A73] | 0 | 0 | > 1000 nM | > 1000 nM | 0.04 to 0.5 mg/kg | >25 | >2 mg/kg | 0.42 ± 0.07 min | 1.21 ± 0.45 min | Red and urine(8/8), Tremor(3/8), and Facial muscle and twitching(2/8), Euphoria and (1/8), Nod(1/8) |  |  |  | 
CC#CC(C)(C)OC(=O)c1c(F)cnn1[C@H](C)c1ccccc1 [Compound A83] | 0 | 0 | > 1000 nM | > 1000 nM | 1 to 2 mg/kg | >10 | >12 mg/kg | 0.43 ± 0.32 min | 3.21 ± 0.41 min |  |  |  |  | 
